“Also recorded” adds a separate entry of the source. Like-named read-outs stand apart in the source and are kept apart here. Numbered stars: 1 amine (or outer) side, 2 acyl side, 3 side chain; on linkers, the order of the positions; unused ones are H or OH. Side chains are listed from the residue outwards. Peptide text beside a SMILES is read from it. * marks the point of attachment. X1 = C[C@H](NC(=O)[C@@H]1CCCN1C(=O)[C@@H](N)CSC1CC(=O)N(CCC(=O)*)C1=O)C(=O)N[C@@H](CCCCN)C(=O)O; C18 diacid = O=C(O)CCCCCCCCCCCCCCCCC(=O)*; γGlu = O=C(O)[C@H](CCC(=O)[*:2])N[*:1]; Fumaroyl = O=C(O)/C=C/C(=O)*; Suc = O=C(CCC(=O)[*:2])[*:1]; Lauroyl = CCCCCCCCCCCC(=O)*; AEEA = NCCOCCOCC(=O)O
Experiments:
mouse ETB receptor = target: T1, mouse ETB receptor (Mus musculus, UniProt P48302); experiment: Determination of EC50s of polypeptides against mouse ETB receptor; type: cell-based; details: Table 9, mouse ETB receptor; read-out: DETAR Agonist Activity EC50
T1 construct: expressed in transfected cells
T1 sequence (P48302 27-442): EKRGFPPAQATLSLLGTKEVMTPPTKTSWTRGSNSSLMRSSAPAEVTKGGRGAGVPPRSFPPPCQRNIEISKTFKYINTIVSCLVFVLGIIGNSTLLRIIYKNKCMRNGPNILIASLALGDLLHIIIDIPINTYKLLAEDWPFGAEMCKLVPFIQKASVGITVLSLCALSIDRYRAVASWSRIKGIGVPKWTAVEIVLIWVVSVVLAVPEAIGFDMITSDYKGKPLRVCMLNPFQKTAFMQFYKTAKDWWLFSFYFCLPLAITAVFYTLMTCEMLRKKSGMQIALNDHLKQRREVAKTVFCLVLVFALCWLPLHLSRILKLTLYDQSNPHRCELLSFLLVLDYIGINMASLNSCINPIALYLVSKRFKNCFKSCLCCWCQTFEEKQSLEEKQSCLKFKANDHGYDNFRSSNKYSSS

BDNF = BDNF protein expression in infarcted brain tissue, mouse model of tMCAO (ELISA); type: in vivo, C57/6J mice
Protocol: Fifty-one male C57/6J mice, aged 10-12 weeks, weighing 25-30g, were housed for at least 2 days prior to the experiment to adapt to the environment (SPF Biotech). A mouse model of tMCAO was established. The mice were anesthetized with isoflurane. Their body temperature was controlled by a thermostatic blanket and monitored and maintained at 37±0.5°C. A middle incision was made in the skin on the mouse skull, the skin was pulled outward, and a bendable microneedle tip was fixed to the surface of the left parietal bone of the mouse skull. A middle incision on the neck was made to separate the right common carotid artery (CCA), external carotid artery (ECA) and internal carotid artery (ICA). […] To ensure a sustained and successful occlusion of the middle cerebral artery, we monitored local cerebral blood flow of all stroke animals with a laser speckle flowmeter (generally, the blood flow can be reduced by 40-60% after stabilized). […]
Successfully modeled C57 tMCAO mice were randomly assigned into three groups: a normal saline group, a 30µg/Kg BX229-Na administration group, and a 100µg/Kg BX229-Na administration group. […] Changes in protein markers VEGF-A and BDNF in each experimental group were detected by ELISA. […]

VEGF-A = VEGF-A protein expression in infarcted brain tissue of tMCAO mice (ELISA); type: in vivo, C57/6J mice; details: for VEGF-A: 3 times s.c. (D1, D3, D6), brain tissue after D14
Protocol: Fifty-one male C57/6J mice, aged 10-12 weeks, weighing 25-30g, were housed for at least 2 days prior to the experiment to adapt to the environment (SPF Biotech). A mouse model of tMCAO was established. The mice were anesthetized with isoflurane. Their body temperature was controlled by a thermostatic blanket and monitored and maintained at 37±0.5°C. A middle incision was made in the skin on the mouse skull, the skin was pulled outward, and a bendable microneedle tip was fixed to the surface of the left parietal bone of the mouse skull. A middle incision on the neck was made to separate the right common carotid artery (CCA), external carotid artery (ECA) and internal carotid artery (ICA). According to the method of Longa (Longa et al., 1989), a silicone rubber-coated suture (RWD Life Science, suture end diameter: 0.22 mm-0.23 mm, MSMC23B120PK50) was introduced through an external carotid artery incision surgery and was slowly advanced through the internal carotid artery towards the origin of the middle cerebral artery. To ensure a sustained and successful occlusion of the middle cerebral artery, we monitored local cerebral blood flow of all stroke animals with a laser speckle flowmeter (generally, the blood flow can be reduced by 40-60% after stabilized). The suture was removed 45 min after the insertion for modeling, and the incision was sutured. Afterward, 1 mL of 37°C warm saline was injected subcutaneously, and the mice were placed on a heating pad until recovery. To alleviate pain, the mice were injected subcutaneously with Tilidine after awakening from anesthesia.
Successfully modeled C57 tMCAO mice were randomly assigned into three groups: a normal saline group, a 30µg/Kg BX229-Na administration group, and a 100µg/Kg BX229-Na administration group. Each group was administered once subcutaneously in the neck 4.5 hours after occlusion (D1), and was administered once more at the same sites and at the same time points on D3 and D6. A sham group included 6 animals. 2 mL/kg was administrated subcutaneously in the neck. Garcia JH scoring was made on D7 and D14 after administration. After the completion of the scoring on D14, the mice were euthanized and harvested for infarcted brain tissues, to extract total proteins. Changes in protein markers VEGF-A and BDNF in each experimental group were detected by ELISA. Table 19: Experimental Grouping and Dosing Regimen

male SD rats = details: one animal per row, observed 48 hours
Protocol: In an experiment about acute toxicity of subcutaneous administration, male SD rats weighing 200-230 g were dosed in a range between 60 µg/Kg and 960 µg/Kg. Observation was made for 48 hours after subcutaneous administration. Toxic response and mortality of the rats were preliminarily observed, and time of death and doses without mortality were recorded. The level of acute toxicity of the polypeptides was preliminarily determined based on the doses without mortality.

mouse model of dMACO = experiment: Cerebral blood flow perfusion in mouse model of dMACO (laser speckle flowmeter); type: in vivo, C57 BL/6 mice
Description: Eight-week-old male C57 BL/6 mice were used and acclimated for at least 3 days. On the day of experiment, the mice were anesthetized with isoflurane, and an incision of approximately 2 cm in length was made in the middle of the […]. The mice were placed under a laser speckle flowmeter to capture a video of blood flow on both sides of the brain as images of pre-ischemic blood flow perfusion. Subsequently, a skull incision (3 mm×1.5 mm) was made at the right rear of the intersection of the sagittal suture and the coronal suture with a skull drill. The distal end of the right middle cerebral artery was located under a microscope, and a No.11 suture was used to ligate the middle artery. Meanwhile, the right common carotid artery was separated and ligated. A video of blood flow on both sides of the brain was captured again as images of post-ischemic blood flow perfusion. The scalp was sutured, and the animals were rewarmed in a rewarming box. Successfully modeled dMACO mice were randomly assigned to single-dose BX-34 groups of 7, 14, and 42 µg/Kg, single-dose IRL1620 groups of 5 and 10 µg/Kg, a three-dose IRL1620 group of 10 µg/Kg, and a normal saline control group. The single-dose groups were administered via tail vein 1 h after modeling, while the three-dose group was administered via tail vein at 1 hour, 3 hours, and 5 hours after modeling. A video of blood flow on both sides of the brain of each animal was captured again at 24 hours, 48 hours, and D7 after administration. During data analysis, the ROI was introduced or the area requiring blood flow calculation was selected. The average blood flow of the selected area was calculated by double-clicking on the blood flow image. Ratios of the average blood flow perfusions on right brain after modeling, and 24 hours, 48 hours and D7 after administration, to the average blood flow on right brain before modeling were used for statistical analysis of each group.

rat model of pMACO = experiment: Foot fault test in rat model of pMACO; type: in vivo, SD rats; details: rat pMCAO; D7 after administration; comparison in words

Compound: CCCCCCCCCCCC(=O)N[C@@H](CCC(=O)NCCOCCOCC(=O)NCCCC[C@H](NC(=O)[C@H](Cc1c[nH]cn1)NC(=O)[C@H](C)NC(=O)[C@H](Cc1ccccc1)NC(=O)[C@H](Cc1ccc(O)cc1)NC(=O)[C@@H](NC(=O)[C@H](C)NC(=O)[C@H](CCC(=O)O)NC(=O)[C@H](CCC(=O)O)NC(=O)[C@H](CC(=O)O)NC(=O)/C=C/C(=O)O)C(C)C)C(=O)N[C@@H](CC(=O)O)C(=O)N[C@H](C(=O)N[C@H](C(=O)N[C@@H](Cc1c[nH]c2ccccc12)C(=O)O)[C@@H](C)CC)C(C)C)C(=O)O [BX229-Na] (Fumaroyl-DEEAVYFAHK([AEEA-γGlu-Lauroyl])DVIW-OH)
- EC50 (mouse ETB receptor): 9.05 nM
- expression level of BDNF protein compared with the normal saline group (BDNF; 30µg/Kg three-dose group): higher than that in the normal saline group
- expression level of BDNF protein compared with the normal saline group (BDNF; 100µg/Kg three-dose group): higher than that in the normal saline group
- expression level of VEGF-A protein compared with the normal saline group (VEGF-A; 30µg/Kg three-dose group): higher
- VEGF-A (VEGF-A; 30 µg/Kg): 441 ± 102 pg/mL
- expression level of VEGF-A protein compared with the normal saline group (VEGF-A; 100µg/Kg three-dose group): significantly different
- VEGF-A (VEGF-A; 100 µg/Kg): 562 ± 56 pg/mL
- Observations of Animal Status (male SD rats; subcutaneous 120 µg/Kg): No obvious reaction observed within 24 hours
- Observations of Animal Status (male SD rats; subcutaneous 240 µg/Kg): No obvious abnormal reaction observed within 48 hours
- Observations of Animal Status (male SD rats; subcutaneous 480 µg/Kg): No obvious abnormal reaction observed within 48 hours
- Observations of Animal Status (male SD rats; subcutaneous 960 µg/Kg): No significant reaction within 2 hours, died at 2 hours and 10 minutes; also recorded: No obvious abnormal reaction observed within 48 hours

Compound: CC[C@H](C)[C@H](NC(=O)[C@H](CC(=O)O)NC(=O)[C@H](CCCCNC(=O)COCCOCCNC(=O)COCCOCCNC(=O)CC[C@H](NC(=O)CCCCCCCCCCCCCCCCC(=O)O)C(=O)O)NC(=O)[C@H](Cc1c[nH]cn1)NC(=O)[C@H](C)NC(=O)[C@H](Cc1ccccc1)NC(=O)[C@H](Cc1ccc(O)cc1)NC(=O)[C@@H](NC(=O)[C@H](C)NC(=O)[C@H](CCC(=O)O)NC(=O)[C@H](CCC(=O)O)NC(=O)[C@H](CC(=O)O)NC(=O)/C=C/C(=O)O)C(C)C)C(=O)N[C@H](C(=O)N[C@@H](Cc1c[nH]c2ccccc12)C(=O)O)[C@@H](C)CC [BX-34] (Fumaroyl-DEEAVYFAHK([AEEA-AEEA-γGlu-C18 diacid])DIIW-OH)
- cerebral blood flow perfusion amount compared to the normal saline group (mouse model of dMACO; dMCAO mice, single dose of 42 µg/kg via tail vein, 24 hours, 48 hours and D7 after administration): significantly increased
- percentages of foot faults (rat model of pMACO): lower than that of the saline group and the IRL1620 group

Compound: CC[C@H](C)[C@H](NC(=O)[C@H](CC(=O)O)NC(=O)[C@H](CCCCNC(=O)COCCOCCNC(=O)CCN1C(=O)CC(SC[C@H](N)C(=O)N2CCC[C@H]2C(=O)N[C@@H](C)C(=O)N[C@@H](CCCCN)C(=O)O)C1=O)NC(=O)[C@H](Cc1c[nH]cn1)NC(=O)[C@H](C)NC(=O)[C@H](Cc1ccccc1)NC(=O)[C@H](Cc1ccc(O)cc1)NC(=O)[C@@H](NC(=O)[C@H](C)NC(=O)[C@H](CCC(=O)O)NC(=O)[C@H](CCC(=O)O)NC(=O)[C@H](CC(=O)O)NC(=O)/C=C/C(=O)O)C(C)C)C(=O)N[C@H](C(=O)N[C@@H](Cc1c[nH]c2ccccc12)C(=O)O)[C@@H](C)CC (stereo partly drawn) [BX-95] (Fumaroyl-DEEAVYFAHK([AEEA-X1])DIIW-OH)
- EC50 (mouse ETB receptor): 22.1 nM

Compound: CC[C@H](C)[C@H](NC(=O)[C@H](CC(=O)O)NC(=O)[C@H](CC(C)C)NC(=O)[C@H](Cc1c[nH]cn1)NC(=O)[C@H](C)NC(=O)[C@H](Cc1ccccc1)NC(=O)[C@H](Cc1ccc(O)cc1)NC(=O)[C@@H](NC(=O)[C@H](C)NC(=O)[C@H](CCC(=O)O)NC(=O)[C@H](CCC(=O)O)NC(=O)[C@H](CC(=O)O)NC(=O)CCC(=O)O)C(C)C)C(=O)N[C@H](C(=O)N[C@@H](Cc1c[nH]c2ccccc12)C(=O)O)[C@@H](C)CC [IRL1620, reference compound] (Suc-DEEAVYFAHLDIIW-OH)
- cerebral blood flow perfusion amount compared to the normal saline group (mouse model of dMACO; dMCAO mice, single dose of 5 µg/kg via tail vein): no significant differences
- cerebral blood flow perfusion amount compared to the normal saline group (mouse model of dMACO; mouse, in vivo): no significant differences
- Observations of Animal Status (male SD rats; subcutaneous 60 µg/Kg): Developed rapid breathing at 25 minutes after administration, recovered after 15 minutes; also recorded: Developed rapid breathing at 26 minutes after administration, recovered after 16 minutes; also recorded: Developed rapid breathing at 30 minutes after administration, recovered after 17 minutes; also recorded: Developed rapid breathing at 25 minutes after administration, recovered after 16 minutes
- Observations of Animal Status (male SD rats; subcutaneous 120 µg/Kg): Developed rapid breathing at 27 minutes after administration, gradually recovered after 50 minutes; also recorded: Developed rapid breathing at 26 minutes after administration and lasted for 23 minutes; then died; also recorded: Developed rapid breathing at 26 minutes after administration, gradually recovered after 50 minutes; also recorded: Developed rapid breathing at 28 minutes after administration, gradually recovered after 50 minutes
